Data from PubChem BioAssay (NCI).
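These data come from cells grown in 96-well plates and exposed to compound for 48 hours at five concentrations. The concentration for full growth arrest is given as TGI.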

Experiments:
Test in all cases: inhibition of tumour cell growth, NCI panel, 48 h
CCRF-CEM leukemia = tested on: CCRF-CEM leukemia
HCC-2998 colon = tested on: HCC-2998 colon
A498 renal = tested on: A498 renal
MOLT-4 leukemia = tested on: MOLT-4 leukemia
SR leukemia = tested on: SR leukemia
HCT-15 colon = tested on: HCT-15 colon
LOX IMVI melanoma = tested on: LOX IMVI melanoma
DU-145 prostate = tested on: DU-145 prostate
HOP-62 NSCLC = tested on: HOP-62 NSCLC
SF-268 CNS = tested on: SF-268 CNS
MCF7 breast = tested on: MCF7 breast
NCI-H522 lung = tested on: NCI-H522 lung
HCT-116 colon = tested on: HCT-116 colon
CAKI-1 renal = tested on: CAKI-1 renal
UO-31 renal = tested on: UO-31 renal
OVCAR-5 ovarian = tested on: OVCAR-5 ovarian
TK-10 renal = tested on: TK-10 renal
SK-OV-3 ovarian = tested on: SK-OV-3 ovarian
U251 CNS = tested on: U251 CNS
HS 578T breast = tested on: HS 578T breast
OVCAR-8 ovarian = tested on: OVCAR-8 ovarian
HT29 colon = tested on: HT29 colon
SW-620 colon = tested on: SW-620 colon
OVCAR-3 ovarian = tested on: OVCAR-3 ovarian
NCI-H226 lung = tested on: NCI-H226 lung
NCI/ADR-RES ovarian = tested on: NCI/ADR-RES ovarian
RXF 393 renal = tested on: RXF 393 renal
ACHN renal = tested on: ACHN renal
SK-MEL-2 melanoma = tested on: SK-MEL-2 melanoma
KM12 colon = tested on: KM12 colon
NCI-H460 lung = tested on: NCI-H460 lung
K-562 leukemia = tested on: K-562 leukemia
MDA-MB-231 breast = tested on: MDA-MB-231 breast
EKVX NSCLC = tested on: EKVX NSCLC
PC-3 prostate = tested on: PC-3 prostate
SF-295 CNS = tested on: SF-295 CNS
T-47D breast = tested on: T-47D breast
MDA-MB-435 = tested on: MDA-MB-435
IGROV1 ovarian = tested on: IGROV1 ovarian
SK-MEL-28 melanoma = tested on: SK-MEL-28 melanoma
786-0 renal = tested on: 786-0 renal
SF-539 CNS = tested on: SF-539 CNS
MDA-N = tested on: MDA-N
HOP-92 NSCLC = tested on: HOP-92 NSCLC
UACC-257 melanoma = tested on: UACC-257 melanoma
SK-MEL-5 melanoma = tested on: SK-MEL-5 melanoma
OVCAR-4 ovarian = tested on: OVCAR-4 ovarian
SNB-19 CNS = tested on: SNB-19 CNS
RPMI-8226 leukemia = tested on: RPMI-8226 leukemia
M14 melanoma = tested on: M14 melanoma
HL-60(TB) leukemia = tested on: HL-60(TB) leukemia
SN12C renal = tested on: SN12C renal
SNB-75 CNS = tested on: SNB-75 CNS
A549 NSCLC = tested on: A549 NSCLC
NCI-H23 lung = tested on: NCI-H23 lung
UACC-62 melanoma = tested on: UACC-62 melanoma
COLO 205 colon = tested on: COLO 205 colon
MALME-3M melanoma = tested on: MALME-3M melanoma

## CN1CCN(Cn2nc(COc3ccc(Cl)cc3)n(/N=C/c3ccc(-c4ccc(Cl)cc4Cl)o3)c2=S)CC1
CCRF-CEM leukemia
  TGI: 17.3 µM
HCC-2998 colon
  TGI: 7.72 µM
A498 renal
  TGI: 32.6 µM
MOLT-4 leukemia
  TGI: 41.1 µM
SR leukemia
  TGI: 14.8 µM
HCT-15 colon
  TGI: 36.9 µM
LOX IMVI melanoma
  TGI: 24.1 µM
DU-145 prostate
  TGI: 25 µM
HOP-62 NSCLC
  TGI: 16.8 µM
SF-268 CNS
  TGI: 21.3 µM
MCF7 breast
  TGI: 36.7 µM
NCI-H522 lung
  TGI: 10.2 µM
HCT-116 colon
  TGI: 26.2 µM
CAKI-1 renal
  TGI: 28.3 µM
UO-31 renal
  TGI: 32.6 µM
OVCAR-5 ovarian
  TGI: 33.2 µM
TK-10 renal
  TGI: 30.6 µM
SK-OV-3 ovarian
  TGI: 30.2 µM
U251 CNS
  TGI: 23.1 µM
HS 578T breast
  TGI: 23.8 µM
OVCAR-8 ovarian
  TGI: 18.7 µM
HT29 colon
  TGI: 15.4 µM
SW-620 colon
  TGI: 19 µM
OVCAR-3 ovarian
  TGI: 30.6 µM
NCI-H226 lung
  TGI: 49.2 µM
NCI/ADR-RES ovarian
  TGI: 38.9 µM
RXF 393 renal
  TGI: 7.13 µM
ACHN renal
  TGI: 33.9 µM
SK-MEL-2 melanoma
  TGI: 41 µM
KM12 colon
  TGI: 11 µM
NCI-H460 lung
  TGI: 34.3 µM
K-562 leukemia
  TGI: > 100 µM
MDA-MB-231 breast
  TGI: 22 µM
EKVX NSCLC
  TGI: 37.7 µM
PC-3 prostate
  TGI: 23.5 µM
SF-295 CNS
  TGI: 27.8 µM
T-47D breast
  TGI: 46.3 µM
MDA-MB-435
  TGI: 8.02 µM
IGROV1 ovarian
  TGI: 24 µM
SK-MEL-28 melanoma
  TGI: 28.2 µM
786-0 renal
  TGI: 17 µM
SF-539 CNS
  TGI: 72.3 µM
MDA-N
  TGI: 14.1 µM
HOP-92 NSCLC
  TGI: 22.7 µM
UACC-257 melanoma
  TGI: 36.7 µM
SK-MEL-5 melanoma
  TGI: 35.5 µM
OVCAR-4 ovarian
  TGI: 10.5 µM

## CN1N=C(c2ccncc2)OC1c1ccc(Cl)cc1Cl (stereo not drawn)
CCRF-CEM leukemia
  TGI: > 100 µM
HCC-2998 colon
  TGI: > 100 µM
A498 renal
  TGI: > 100 µM
MOLT-4 leukemia
  TGI: > 100 µM
SNB-19 CNS
  TGI: > 100 µM
HCT-15 colon
  TGI: > 100 µM
LOX IMVI melanoma
  TGI: > 100 µM
DU-145 prostate
  TGI: > 100 µM
HOP-62 NSCLC
  TGI: > 100 µM
SF-268 CNS
  TGI: > 100 µM
MCF7 breast
  TGI: > 100 µM
NCI-H522 lung
  TGI: > 100 µM
HCT-116 colon
  TGI: > 100 µM
RPMI-8226 leukemia
  TGI: > 100 µM
UO-31 renal
  TGI: > 100 µM
OVCAR-5 ovarian
  TGI: > 100 µM
TK-10 renal
  TGI: > 100 µM
SK-OV-3 ovarian
  TGI: > 100 µM
U251 CNS
  TGI: > 100 µM
HS 578T breast
  TGI: > 100 µM
OVCAR-8 ovarian
  TGI: > 100 µM
HT29 colon
  TGI: > 100 µM
SW-620 colon
  TGI: > 100 µM
OVCAR-3 ovarian
  TGI: > 100 µM
NCI-H226 lung
  TGI: 84.2 µM
NCI/ADR-RES ovarian
  TGI: > 100 µM
RXF 393 renal
  TGI: > 100 µM
ACHN renal
  TGI: > 100 µM
M14 melanoma
  TGI: > 100 µM
SK-MEL-2 melanoma
  TGI: > 100 µM
HL-60(TB) leukemia
  TGI: > 100 µM
KM12 colon
  TGI: > 100 µM
NCI-H460 lung
  TGI: > 100 µM
K-562 leukemia
  TGI: > 100 µM
MDA-MB-231 breast
  TGI: > 100 µM
SN12C renal
  TGI: > 100 µM
EKVX NSCLC
  TGI: > 100 µM
SNB-75 CNS
  TGI: 55.6 µM
PC-3 prostate
  TGI: > 100 µM
SF-295 CNS
  TGI: > 100 µM
T-47D breast
  TGI: > 100 µM
MDA-MB-435
  TGI: > 100 µM
A549 NSCLC
  TGI: > 100 µM
IGROV1 ovarian
  TGI: > 100 µM
NCI-H23 lung
  TGI: > 100 µM
SK-MEL-28 melanoma
  TGI: > 100 µM
UACC-62 melanoma
  TGI: 76.5 µM
786-0 renal
  TGI: > 100 µM
SF-539 CNS
  TGI: > 100 µM
MDA-N
  TGI: > 100 µM
UACC-257 melanoma
  TGI: > 100 µM
SK-MEL-5 melanoma
  TGI: > 100 µM
OVCAR-4 ovarian
  TGI: > 100 µM
COLO 205 colon
  TGI: > 100 µM

## COC(=O)CCCc1ccc2c(c1)CC1(Cc3ccccc3C1)C2
CCRF-CEM leukemia
  TGI: 71.6 µM
HCC-2998 colon
  TGI: > 100 µM
A498 renal
  TGI: > 100 µM
MOLT-4 leukemia
  TGI: 15.5 µM
HCT-15 colon
  TGI: 97.3 µM
LOX IMVI melanoma
  TGI: > 100 µM
HOP-62 NSCLC
  TGI: > 100 µM
MCF7 breast
  TGI: > 100 µM
NCI-H522 lung
  TGI: > 100 µM
HCT-116 colon
  TGI: 78.6 µM
RPMI-8226 leukemia
  TGI: 85.5 µM
UO-31 renal
  TGI: > 100 µM
OVCAR-5 ovarian
  TGI: > 100 µM
TK-10 renal
  TGI: > 100 µM
SK-OV-3 ovarian
  TGI: > 100 µM
U251 CNS
  TGI: > 100 µM
HS 578T breast
  TGI: > 100 µM
OVCAR-8 ovarian
  TGI: > 100 µM
HT29 colon
  TGI: > 100 µM
OVCAR-3 ovarian
  TGI: > 100 µM
NCI-H226 lung
  TGI: > 100 µM
NCI/ADR-RES ovarian
  TGI: > 100 µM
RXF 393 renal
  TGI: > 100 µM
ACHN renal
  TGI: > 100 µM
M14 melanoma
  TGI: > 100 µM
SK-MEL-2 melanoma
  TGI: 56.1 µM
KM12 colon
  TGI: > 100 µM
MDA-MB-231 breast
  TGI: > 100 µM
SN12C renal
  TGI: > 100 µM
EKVX NSCLC
  TGI: > 100 µM
PC-3 prostate
  TGI: > 100 µM
SF-295 CNS
  TGI: > 100 µM
T-47D breast
  TGI: > 100 µM
MDA-MB-435
  TGI: 61.1 µM
A549 NSCLC
  TGI: > 100 µM
IGROV1 ovarian
  TGI: > 100 µM
NCI-H23 lung
  TGI: > 100 µM
UACC-62 melanoma
  TGI: > 100 µM
786-0 renal
  TGI: > 100 µM
SF-539 CNS
  TGI: > 100 µM
MDA-N
  TGI: 53.6 µM
HOP-92 NSCLC
  TGI: > 100 µM
UACC-257 melanoma
  TGI: > 100 µM
SK-MEL-5 melanoma
  TGI: 59.7 µM
MALME-3M melanoma
  TGI: > 100 µM
OVCAR-4 ovarian
  TGI: > 100 µM
COLO 205 colon
  TGI: 62.5 µM
